23 compounds from US20130252890A1, “6,7-DIHYDRO-5H-BENZO[7]ANNULENE DERIVATIVES, PROCESS FOR PREPARATION THEREOF, PHARMACEUTICAL PREPARATIONS COMPRISING THEM, AND THE USE THEREOF FOR PRODUCTION OF MEDICAMENTS” (BAYER INTELLECTUAL PROPERTY GMBH, priority 2010, published 2013) can be followed below.

Each structure is given as a SMILES string.

One may read the IC50 as the midpoint of a concentration-inhibition curve.

In the experiment the target is T1, oestrogen receptor (ER) (Homo sapiens, UniProt P03372).
T1 construct: These MVLN cells express, along with the functional oestrogen receptor (ER), a reporter construct; endogenous in cells; host or cells: MVLN cells (MCF7 derivative carrying a luciferase reporter construct)
T1 sequence (P03372 1-595): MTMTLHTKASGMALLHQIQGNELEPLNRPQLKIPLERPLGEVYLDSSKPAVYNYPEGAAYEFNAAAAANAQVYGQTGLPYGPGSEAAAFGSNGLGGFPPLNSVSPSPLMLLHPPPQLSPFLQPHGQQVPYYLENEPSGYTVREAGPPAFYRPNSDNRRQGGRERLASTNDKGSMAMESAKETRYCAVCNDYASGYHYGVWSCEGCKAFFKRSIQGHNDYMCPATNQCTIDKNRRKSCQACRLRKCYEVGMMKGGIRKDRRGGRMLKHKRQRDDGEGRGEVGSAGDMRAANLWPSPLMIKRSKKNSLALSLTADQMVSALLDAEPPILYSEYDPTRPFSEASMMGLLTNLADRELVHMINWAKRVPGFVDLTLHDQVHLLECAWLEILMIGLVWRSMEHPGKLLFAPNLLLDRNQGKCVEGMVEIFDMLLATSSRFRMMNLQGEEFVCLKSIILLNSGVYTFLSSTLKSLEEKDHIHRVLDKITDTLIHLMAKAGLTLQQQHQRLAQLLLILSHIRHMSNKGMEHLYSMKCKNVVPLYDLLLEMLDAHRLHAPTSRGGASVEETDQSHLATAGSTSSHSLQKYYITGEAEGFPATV
Description: Anti-oestrogenic action in MVLN cells (inhibition of estradiol-induced luciferase). In kind it is cell-based. Conditions: inhibition of estradiol-induced luciferase signal, value of Ex. 44 is a mean value, read-out: Antioestrogenic action in vitro: MVLN transactivation antagonism IC50. The text has this:
The anti-oestrogenic action of the claimed pharmacological compounds was investigated in so-called MVLN cells in vitro. MVLN cells are derivatives of the hormone-responsive MCF7 breast cancer cells known by a person skilled in the art. These MVLN cells express, along with the functional oestrogen receptor (ER), a reporter construct, which under ER-activation expresses luciferase. Determination of the activity of the induced luciferase permits a direct conclusion on the oestrogen properties of substances. To investigate the anti-oestrogenic properties of the pharmacological compounds, they were investigated in the presence of oestrogen for their potential for inhibiting the luciferase signal induced by estradiol. The claimed pharmacological test substances were investigated in MVLN cells for their anti-oestrogenic potential, as described (see Table 2).
Consider `CN(CCCCCCC1=C(c2ccc(F)cc2)CCCc2c1ccc(O)c2F)CCCCS(=O)(=O)CCC(F)(F)F` [Example 50, 4-Fluoro-8-(4-fluorophenyl)-9-[6-(methyl{4-[(3,3,3-trifluoropropyl)sulphonyl]butyl}amino)hexyl]-6,7-dihydro-5H-benzo[7]annulen-3-ol], for which the IC50 was found to be 16 nM.
In the case of `CN(CCCCCC1=C(c2ccc(F)cc2)CCCc2cc(O)ccc21)CCCCS(=O)(=O)CCC(F)(F)F` [Example 52, 8-(4-Fluorophenyl)-9-[5-(methyl{4-[(3,3,3-trifluoropropyl)sulphonyl]butyl}amino)pentyl]-6,7-dihydro-5H-benzo[7]annulen-3-ol], the IC50 was determined as 521 nM.
With `CN(CCCCCCC1=C(c2ccc(F)cc2)CCCc2cc(O)ccc21)CCCS(=O)(=O)CCC(F)(F)F` [Example 53, 8-(4-Fluorophenyl)-9-[6-(methyl{3-[(3,3,3-trifluoropropyl)sulphonyl]propyl}amino)hexyl]-6,7-dihydro-5H-benzo[7]annulen-3-ol], the IC50 was found to be 85 nM.
As for `O=S(=O)(CCCN(CCO)CCCCCCC1=C(c2ccc(F)cc2)CCCc2cc(O)ccc21)CCCC(F)(F)C(F)(F)F` [Example 54, 8-(4-Fluorophenyl)-9-{6-[(2-hydroxyethyl){3-[(4,4,5,5,5-pentafluoropentyl)sulphonyl]propyl}amino]hexyl}-6,7-dihydro-5H-benzo[7]annulen-3-ol], the half-inhibitory concentration (IC50) stood at 27 nM.
To `O=S(=O)(CCCN(CCCO)CCCCCCC1=C(c2ccc(F)cc2)CCCc2cc(O)ccc21)CCCC(F)(F)C(F)(F)F` [Example 55, 8-(4-Fluorophenyl)-9-{6-[(3-hydroxypropyl){3-[(4,4,5,5,5-pentafluoropentyl)sulphonyl]propyl}amino]hexyl}-6,7-dihydro-5H-benzo[7]annulen-3-ol] belongs 22 nM.
Consider `O=S(=O)(CCCN(CCO)CCCCCCC1=C(c2ccc(F)cc2)CCCc2cc(O)ccc21)CCC(F)(F)F` [Example 56, 8-(4-Fluorophenyl)-9-{6-[(2-hydroxyethyl){3-[(3,3,3-trifluoropropyl)sulphonyl]propyl}amino]hexyl}-6,7-dihydro-5H-benzo[7]annulen-3-ol], for which the IC50 stood at 29 nM.
`O=S(=O)(CCCN(CCCO)CCCCCCC1=C(c2ccc(F)cc2)CCCc2cc(O)ccc21)CCC(F)(F)F` [Example 57, 8-(4-Fluorophenyl)-9-{6-[(3-hydroxypropyl){3-[(3,3,3-trifluoropropyl)sulphonyl]propyl}amino]hexyl}-6,7-dihydro-5H-benzo[7]annulen-3-ol]: the IC50 is 111 nM.
`O=S(=O)(CCCN(CCCCCCC1=C(c2ccc(F)cc2)CCCc2cc(O)ccc21)Cc1ccc(F)cc1)CCCC(F)(F)C(F)(F)F` [Example 58, 9-{6-[(4-Fluorobenzyl){3-[(4,4,5,5,5-pentafluoropentyl)sulphonyl]propyl}amino]hexyl}-8-(4-fluorophenyl)-6,7-dihydro-5H-benzo[7]annulen-3-ol]: the IC50 came out at 184 nM.
With `O=S(=O)(CCCN(CCO)CCCCCCC1=C(c2ccc(F)cc2)CCCc2c1ccc(O)c2F)CCCC(F)(F)C(F)(F)F` [Example 59, 4-Fluoro-8-(4-fluorophenyl)-9-{6-[(2-hydroxyethyl){3-[(4,4,5,5,5-pentafluoropentyl)sulphonyl]propyl}amino]hexyl}-6,7-dihydro-5H-benzo[7]annulen-3-ol], the IC50 amounted to 16 nM.
For `O=S(=O)(CCCN(CCCO)CCCCCCC1=C(c2ccc(F)cc2)CCCc2c1ccc(O)c2F)CCCC(F)(F)C(F)(F)F` [Example 60, 4-Fluoro-8-(4-fluorophenyl)-9-{6-[(3-hydroxypropyl){3-[(4,4,5,5,5-pentafluoropentyl)sulphonyl]propyl}amino]hexyl}-6,7-dihydro-5H-benzo[7]annulen-3-ol], the IC50 amounted to 15 nM.
As for `O=S(=O)(CCCN(CCO)CCCCCCC1=C(c2ccc(F)cc2)CCCc2c1ccc(O)c2F)CCC(F)(F)F` [Example 61, 4-Fluoro-8-(4-fluorophenyl)-9-{6-[(2-hydroxyethyl){3-[(3,3,3-trifluoropropyl)sulphonyl]propyl}amino]hexyl}-6,7-dihydro-5H-benzo[7]annulen-3-ol], the half-maximal inhibitory concentration (IC50) was 24 nM.
For `O=S(=O)(CCCN(CCCO)CCCCCCC1=C(c2ccc(F)cc2)CCCc2c1ccc(O)c2F)CCC(F)(F)F` [Example 62, 4-Fluoro-8-(4-fluorophenyl)-9-{6-[(3-hydroxypropyl){3-[(3,3,3-trifluoropropyl)sulphonyl]propyl}amino]hexyl}-6,7-dihydro-5H-benzo[7]annulen-3-ol], the IC50 came to 84 nM.
To `CC(C)(C)N(CCCCCCC1=C(c2ccc(F)cc2)CCCc2c1ccc(O)c2F)CCCS(=O)(=O)CCCC(F)(F)C(F)(F)F` [Example 63, 9-[6-(tert-Butyl{3-[(4,4,5,5,5-pentafluoropentyl)sulphonyl]propyl}amino)hexyl]-4-fluoro-8-(4-fluorophenyl)-6,7-dihydro-5H-benzo[7]annulen-3-ol] belongs 95 nM; to `O=S(=O)(CCCN(CCCCCCC1=C(c2ccc(F)cc2)CCCc2c1ccc(O)c2F)CC(F)F)CCCC(F)(F)C(F)(F)F` [Example 64, 9-{6-[(2,2-Difluoroethyl){3-[(4,4,5,5,5-pentafluoropentyl)sulphonyl]propyl}amino]hexyl}-4-fluoro-8-(4-fluorophenyl)-6,7-dihydro-5H-benzo[7]annulen-3-ol], 86 nM; to `O=S(=O)(CCCN(CCCCCCC1=C(c2ccc(F)cc2)CCCc2c1ccc(O)c2F)Cc1ccc(F)cc1)CCCC(F)(F)C(F)(F)F` [Example 65, 4-Fluoro-9-{6-[(4-fluorobenzyl){3-[(4,4,5,5,5-pentafluoropentyl)sulphonyl]propyl}amino]hexyl}-8-(4-fluorophenyl)-6,7-dihydro-5H-benzo[7]annulen-3-ol], 116 nM.
Turning to `O=S(=O)(CCCCNCCCCCCC1=C(c2cc(F)cc(F)c2)CCCc2cc(O)ccc21)CCCC(F)(F)F` [Example 67, 8-(3,5-Difluorophenyl)-9-[6-({4-[(4,4,4-trifluorobutyl)sulphonyl]butyl}amino)hexyl]-6,7-dihydro-5H-benzo[7]annulen-3-ol], the half-maximal inhibitory concentration (IC50) amounted to 20 nM.
To `CN(CCCCCCC1=C(c2cc(F)cc(F)c2)CCCc2cc(O)ccc21)CCCCCS(=O)(=O)CCC(F)(F)F` [Example 68, 8-(3,5-Difluorophenyl)-9-[6-(methyl{5-[(3,3,3-trifluoropropyl)sulphonyl]pentyl}amino)hexyl]-6,7-dihydro-5H-benzo[7]annulen-3-ol] belongs 106 nM; to `CN(CCCCCCC1=C(c2cc(F)cc(F)c2)CCCc2cc(O)ccc21)CCCCS(=O)(=O)CCC(F)(F)C(F)(F)F` [Example 69, 8-(3,5-Difluorophenyl)-9-[6-(methyl{4-[(3,3,4,4,4-pentafluorobutyl)sulphonyl]butyl}amino)hexyl]-6,7-dihydro-5H-benzo[7]annulen-3-ol], 19 nM.
`CN(CCCCCCC1=C(c2cc(F)cc(F)c2)CCCc2cc(O)ccc21)CCCS(=O)(=O)CCCCC(F)(F)F` [Example 70, 8-(3,5-Difluorophenyl)-9-[6-(methyl{3-[(5,5,5-trifluoropentyl)sulphonyl]propyl}amino)hexyl]-6,7-dihydro-5H-benzo[7]annulen-3-ol]: the IC50 is 18 nM.
To `CN(CCCCCCC1=C(c2ccc(F)c(F)c2)CCCc2cc(O)ccc21)CCCCCS(=O)(=O)CCC(F)(F)F` [Example 71, 8-(3,4-Difluorophenyl)-9-[6-(methyl{5-[(3,3,3-trifluoropropyl)sulphonyl]pentyl}amino)hexyl]-6,7-dihydro-5H-benzo[7]annulen-3-ol] belongs 56 nM; to `CN(CCCCCCC1=C(c2ccc(F)c(F)c2)CCCc2cc(O)ccc21)CCCS(=O)(=O)CCCCC(F)(F)F` [Example 73, 8-(3,4-Difluorophenyl)-9-[6-(methyl{3-[(5,5,5-trifluoropentyl)sulphonyl]propyl}amino)hexyl]-6,7-dihydro-5H-benzo[7]annulen-3-ol], 18 nM.
As for `O=S(=O)(CCCN(CCF)CCCCCCC1=C(c2ccc(F)cc2)CCCc2cc(O)ccc21)CCCC(F)(F)C(F)(F)F` [Example 74, 9-{6-[(2-Fluoroethyl){3-[(4,4,5,5,5-pentafluoropentyl)sulphonyl]propyl}amino]hexyl}-8-(4-fluorophenyl)-6,7-dihydro-5H-benzo[7]annulen-3-ol], the IC50 was 28 nM.
In the case of `CN(CCCCCCC1=C(c2ccc(F)cc2)CCCc2cc(O)ccc21)CCCCS(=O)(=O)CCC(F)(F)C(F)(F)F` [Example 75, 8-(4-Fluorophenyl)-9-[6-(methyl{4-[(3,3,4,4,4-pentafluorobutyl)sulphonyl]butyl}amino)hexyl]-6,7-dihydro-5H-benzo[7]annulen-3-ol], the IC50 turned out to be 11 nM.
